Values joined by “and” are separate entries in the source; they are usually repeats but may differ in a detail not shown here. Identical values can stand only once.
Assays:
[1] = Fluorescence of 2 μM acridine orange solution with NaCl, caffeine and/or dsDNA
Method: The addition of salt could possibly affect the Kassoc values of AO and the other reactants by modifying the charge on the reactants and/or decreasing the influence of water molecules. To minimize AO self-association, i.e. dimerization, a relatively low concentration of AO [2 μM] may be used. The interaction between reactants was analyzed by spectrofluorometric methods at λex 485 nm and monitored at λem 530 nm (green).
Solutions of 2 μM AO alone and in various combinations with 150 mM NaCl, 5 mM CAF, 2 mM DNA were studied. Table 3-2 summarizes the results and the statistical analysis for differences between means.
In Table 3-2, fluorescence (λex=485 nm and λem=530 nm) was measured for AO [2 μM] in the absence of, and in the presence of, NaCl [150 mM], caffeine [5 mM], and DNA [2 mM] alone or in combination. Significant differences were found by one-way ANOVA (p≦0.05). […] It is noted that n=3 unless denoted by an * which indicates n=4.
Spectrofluorometric analyses at λex 485 nm and λem 530 nm were performed on solutions of 2:M AO in combination with 5 mM CAF and 2 mM dsDNA, with and without 150 mM NaCl. […] Note that CAF had no significant effect on the fluorescence of the AO solution when in the presence of NaCl (SNK letter designation “B”).

[2] = Optical titration (absorbance) of acridine orange with xanthines/purines, Kassoc from delta absorbance; assay type: binding; conditions: for enhancement of the ability of theophylline to complex AO: Kassoc relative to theophylline; for Kassoc ± S.E.: binding affinity between acridine orange (10 μM) and compound, 5 mM HEPES pH 7.0, 25±1° C., 0 = no measurable association detected; for K ± S.D.: AO-CAF, Absorbance, AO [10 μM], CAF [1-5000 μM], this study
Method: A red spectral shift in the optical adsorption maximum of AO upon the addition of a particular xanthine, indicates the possibility of a complex being formed between the two compounds. Spectral shifts can be measured by optical titrations.
Optical titrations (serial additions of various xanthines to a solution of AO) were performed on a Beckman DU-600 Scanning Spectrophotometer (Beckman Instrument Co., New York, N.Y.) using a 3 mL (1-cm light path) quartz cuvette containing 2.0 mL of a […]. The DU600 Spectrophotometer was blanked with 2 mL of a pH 7.0 buffered 5 mM HEPES solution over the full range of wavelengths to be scanned prior to sample analysis. This reduced the need to subtract the background absorbance from the HEPES buffer. Optical absorbance scans were performed over a wavelength range preferably from 400 nm to 550 nm. […] The 10 μM AO solution was scanned before the start of each titration series to quantitatively monitor any changes in the absorbance spectrum. Optical absorbance experiments were performed using aliquots varying in volume from 1:L to 20:L taken from prepared xanthine stock solutions (5 mM to 50 mM) and titrated into the cuvette containing 2.0 mL of the 10 μM AO solution. The solution in the cuvette was then thoroughly mixed by 10 seconds of shaking before scanning. All titrations were performed at room temperature (25±1° C.). The absorbance spectra were measured in 1 nm intervals and stored in digital form. Digitized scan data was converted to a Lotus Spreadsheet file (*.wk1) using a conversion program supplied by the manufacturer (Beckman Instruments Inc.) then imported into a Microsoft Excel 97™ Workbook file (*.xls) and saved in this format for further analysis. Spectral data for each titration was combined and expressed in graphic form (Excel™) (X-axis=wavelength in nm; Y-axis=optical absorbance) for each xanthine titrated with AO. […] Adjusted absorption values were plotted and compared to spectra from non-complexed AO. This allowed for the visualization of an expected spectral shift that occurs when AO forms a complex with a xanthine.
The association constant, Kassoc, may be used to analyze the binding ability of modified xanthines to DNA intercalators. The association constant may be calculated based upon a differential shift in the absorbance spectrum. When the presence of the xanthine caused a spectral shift, a difference absorbance plot or delta plot was obtained. Delta plots were constructed by subtracting the adjusted absorption spectrum of AO in the presence of the xanthine from the initial spectrum of AO alone at each wavelength and for each aliquot of the titration. This procedure allowed for the creation of difference absorption values or delta absorption values. Delta absorption values obtained in this manner (Y-axis=delta absorption) were plotted against wavelength in nm (X-axis). The appearance of a single isobestic point was indicative of only two species present in solution, AO, and an AO complex. Graphic representation allowed for the selection of a wavelength with the maximum sensitivity for determining the association constant. This wavelength was characterized by the greatest positive response in delta absorbance values observed upon addition of each aliquot of xanthine to the AO solution. The AO-xanthine association or binding constant was determined by the following equilibrium expression: I+X≡IX EQUATION 1: […]
Where I represents the intercalator (AO), X represents the interceptor molecule (xanthine), and IX represents the AO-xanthine complex, respectively.

[3] = test system: chicken erythrocyte nuclear chromatin; assay: Removal of acridine orange from stained chicken erythrocyte nuclear chromatin by xanthine rinse, fluorescence microscopy; conditions: for Nuclear color, Stain: before xanthine rinse; for Nuclear color, Re-stain: re-stained after xanthine rinse; for Nuclear color, After Rinse: xanthine rinse 50 mM, 1 hour, static
Method: Experiments were conducted to determine whether xanthines with known binding affinities to AO could compete with nuclear DNA for binding to AO and, therefore, be able to remove AO from its intercalation position within nuclear chromatin. Fluorescence microscopy was used to observe the fluorescent color produced by the AO-DNA complex following the staining of chicken erythrocyte nuclear chromatin with AO at both 5 μM and 5 mM.
Microscope slides smeared with chicken erythrocytes were stained with either 5 μM or 5 mM AO for a period of 30 minutes followed by three 10 second rinses in distilled water before drying at room temperature. Slides were then examined by fluorescence microscopy using a, Zeiss Model 63 Microscope with a xenon source fluorescent emitter. In some instances, a blocking filter was used to filter out fluorescence emission in the red and higher wavelengths. Photomicrographs were taken with Kodak Gold 35 mm ASA 1600 speed film, developed and color prints made. Comparative photomicrographs were taken at the same magnification and at the same exposure time. Selected photomicrographs were digitally scanned (Hewitt-Packard, Model 4L Scanner, Palo Alto, Calif.) and stored on 100 MB ZIP cartridges.
Slides were again examined by fluorescence microscopy and fluorescence color of the nuclei recorded. Slides were again stained with 5 mM AO then re-examined by fluorescence microscopy and fluorescence color of the nuclei recorded.
In the example shown in Table 4-3, the chicken erythrocytes were smeared and dried on a microscope slide prior to exposure to the AO solution for 30 minutes followed by water rinses to remove excess AO. Following drying, each slide was observed under fluorescence microscopy then placed in one of the xanthine solutions (50 ml volume) for 1 hour under static conditions, rinsed with water, then dried prior to being observed by fluorescence microscopy without a red blocking filter. Finally, each slide was restained following the initial staining procedures and again observed by fluorescence microscopy. Kassoc values are taken from Table 2-1 and are expressed in M^−1.

[4] = 2 μM AO, caffeine 5 mM, dsDNA 2 mM where present, λex 485 nm, λem 530 nm
[5] = Table 4-2, in parentheses under compound, taken from Table 2-1
[6] = Table 4-3, taken from Table 2-1

SMILES	enhancement of the ability of theophylline to complex AO [2] [%]	Kassoc [2, 5]	Kassoc [2, 6] [M⁻¹]	Kassoc ± S.E. [2]	Nuclear color, Stain ([3]; AO [5 μM] 30 minutes)	Nuclear color, Re-stain ([3]; AO [5 μM])	Nuclear color, After Rinse ([3]; AO [5 μM])	Nuclear color, Stain ([3]; AO [5 mM] 30 minutes)	Nuclear color, Re-stain ([3]; AO [5 mM])	Nuclear color, After Rinse ([3]; AO [5 mM])	also measured
CN(C)c1ccc2cc3ccc(N(C)C)cc3nc2c1.Cl [AO, 3,6-bis[dimethylamino]acridine hydrochloride]	–	–	–	–	–	–	–	–	–	–	Fluorescence With NaCl [150 mM] Mean ± S.E. [1, 4]: 635.5 ± 17.7 (B); Fluorescence Without NaCl Mean ± S.E. [1, 4]: 514.0 ± 6.5 (A) ^
Cn1c(=O)c2[nH]cnc2n(C)c1=O.NCCN [1,3-dimethyl xanthine ethylenediamine]	280	(596) M^−1	596	596.2 ± 6.5 M⁻¹	Green	Green	None	Red	Red	None	Kassoc ± S.E. ([2]; listed as AM): 596 M⁻¹; Kassoc ± S.E. ([2]; listed as aminophylline): 596.2 M⁻¹ and 596 M⁻¹; effect of xanthine rinse on fluorescence of AO stained nuclear chromatin ([3]; 50 mM xanthine rinse): removal of most, if not all, green and red color
Cn1c(=O)c2c(ncn2C)n(C)c1=O [1,3,7-trimethyl xanthine (caffeine), 1,3,7-trimethyl xanthine]	63	(256) M^−1	256	255.7 ± 4.8^c M^−1	Green	Green	None	Red	Red	Red-	increase of fluorescence of 2 μM AO at 530 nm by addition ([1]; 2 mM DNA or 5 mM CAF, without NaCl): 29%; increase in fluorescence intensity of AO by addition ([1]; DNA or CAF in the presence of 150 mM NaCl): 36%; K ± S.D. [2]: 255 ± 5 M⁻¹ and 256 ± 5 M⁻¹; K ± S.D. ([2]; listed as CAF-AO): ~250 M⁻¹; Kassoc ([2]; Table 2-2, Kassoc value with acridine orange (this report)): 256 M⁻¹; Kassoc ± S.E. ([2]; listed as CAF): 256 M⁻¹; Kassoc ± S.E. ([2]; listed as CAF-AO): 256 M⁻¹; Kassoc ± S.E. ([2]; listed as CAP): ~256 M⁻¹

From US7662767B2, “Polynucleotide intercalator interceptors and inhibitors” (Materials Evolution and Development USA, Inc., priority 2000, dated 2010)
